US7109173B1, “Transport of nucleotides, oligonucleotides and polynucleotides into the cytoplasm and nucleus of cells by peptides” (priority 2004, dated 2006)

How the values were obtained:
Format in all cases: cell-based
[1] = system: Fibroblasts; assay: Uptake of homopolymers by fibroblasts, single cell fluorescence analysis with syto-13; settings: fibroblasts stained with syto-13, relative intensity ± standard deviation, n = number of cells
Description: (§1) Fibroblasts cells were incubated for 24 hrs with and without fetal calf serum. Cells harvested at zero time served as controls. They were subjected to all of the analyses performed on experimental cells. Cells were harvested as described in ‘section V. Methods and Materials’. Macrophages were treated the same as previously described for fibroblasts except human serum was used in place of fetal calf serum and they were not cultured without serum. Cells were incubated with predetermined amounts of nucleotides with and without peptide Incubations were stopped at zero time and 24 hrs. The media harvested at zero and 24 hrs was saved for analysis for peptides and nucleotides. Cells were washed and harvested as described previously. The wash was saved for analysis of peptides and nucleotides. Some cells were sonicated and aliquots analyzed for radioactivity by a liquid scintillation spectrometer (counter). […] Spectrophotometric analysis quantifies the amount of nucleotide retained. VI: Extraction of lipids—The non-saponifiable lipids and free fatty acids were extracted using petroleum ether (30–60° C.). Neutral lipids were extracted with petroleum ether without prior saponification. […] The latter two methods, when used, necessitate extensive chromatographic separation of mevalonate from the phospholipids and neutral lipids. […] Control experiments in which the reaction was stopped at zero time and in which the enzyme preparation is omitted show no radioactivity is extracted when the usual incubation, saponification, and isolation procedures were performed.
(§2) a) Isolating the peptides then b) incubating the peptide sample with predetermined amounts of nucleotides with and without peptides. After this, the nucleotides are transferred into the cells. Cells were treated with homopolymers in the presence and absence of the peptides. Uptake was determined as described under Methods and Materials, above. The polynucleotides were quantified spectrophotometrically and by single cell fluorescence analysis using syto-13 (Molecular Probes).
Fibroblasts were cultured as described under V.Methods and Materials. Cells were stained with syto-13 (Molecular Probes). Single cell fluorescence analysis was performed using a Zeiss microsope photometer. Values are relative intensity ±standard deviation. N=number of cells.

[2] = system: cells; assay: Determination of cellular loci of administered polynucleotides by differential centrifugation; parameters: Absorbance, Nuclear Fraction / Absorbance, Microsomal Fraction: dose or concentration left out as unconfirmed; settings: for μ grams, Microsomal Fraction / μ grams, Nuclear Fraction: calculated after subtracting zero time control values from experimental values; for Absorbance, Microsomal Fraction / Absorbance, Nuclear Fraction: observed values, absorbance at 260 nm
Description: as §1
Cells were cultured and treated as described under Methods, above. Cells were subjected to differential centrifugation. μ grams calculated after correction of values by subtracting zero time control values from experimental values. No significant absorbances of nucleotides were detected in the experimental samples in the mitochondrial-lysosomal fraction when zero time control values were subtracted from the experimental values. Absorbance was measured spectrophotometrically at […]. […] In a preferred embodiment of this invention, the target cells are smooth muscle cells and macrophages which are found in atheromatous plaques. The plaques are a focal thickening of the intima caused by proliferation of smooth muscle cells.

[3] = system: human fibroblasts; assay: Uptake of polynucleotides in the presence and absence of peptides by human fibroblasts, spectrophotometric; parameters: Absorbance, Peptides / Absorbance, Without Peptides: dose or concentration left out as unconfirmed; settings: 24 hrs minus zero time values; for μ grams, Peptides / Absorbance, Peptides: with peptides; for Absorbance, Peptides / Absorbance, Without Peptides: absorbance at 260 nm, ± standard deviation
Description: 1. Analysis of control cells stopped at zero time gives the original content of nucleotides of interest.
2. Analysis of control cells stopped after 24 hour incubation gives the change in nucleotide content during the 24 hr period. That is, 24 hr content of control cells minus zero time control cells nucleotide content equals net change.
3. Analysis of nucleotide treated cells at zero time incubation gives the initial content and/or bound nucleotides.
4. Analysis of nucleotide treated cells at 24 hour time gives the amount present after 24 hours.
5. 24 hour content minus zero time content gives the net change in nucleotide content.
6. The net content of the 24 hr nucleotide treated cells minus the zero time content of nucleotides gives the amount transported by the peptides.
7. The net values are previously corrected for the amount in the original media and wash for the treated cells.
as §1, §2
The cells were cultured as described under Methods, above. The experiments were stopped at zero time and 24 hours. Values are obtained by subtracting initial zero time values from those of 24 hrs. Values are ±standard deviation. Absorbance measured spectrophotometrically at […].

μ grams, Microsomal Fraction [2] [μ grams]	Absorbance, Microsomal Fraction [2]	Substance	Fluorescence Relative Intensity, Control [1]	Fluorescence Relative Intensity, Experimental [1]	μ grams, Nuclear Fraction [2] [μ grams]	Absorbance, Nuclear Fraction [2]	μ grams, Peptides [3] [μ grams]	Absorbance, Peptides [3]	μ grams, Without Peptides [3] [μ grams]	Absorbance, Without Peptides [3]
155	0.242 ± 0.038	Polyadenylic acid	11.7 ± 3.8 (n = 22)	27.4 ± 7.5 (n = 23)	59.1	0.265 ± 0.061	252	0.200 ± 0.101	59	0.047 ± 0.025
153	0.236 ± 0.025	Polycytidylic acid	3.3 ± 0.6 (n = 14)	14.9 ± 1.6 (n = 14)	107.4	0.254 ± 0.026	380	0.209 ± 0.028	94	0.052 ± 0.031
		Polyguanylic acid	13.1 ± 3.1 (n = 24)	39.2 ± 9.5 (n = 17)	747.7	0.354 ± 0.030	1160	0.444 ± 0.058	580	0.223 ± 0.084
186	0.313 ± 0.030	Polyuridylic acid	4.4 ± 1.3 (n = 22)	16.8 ± 4.6 (n = 23)	246.1	0.326 ± 0.050	436	0.370 ± 0.07	82	0.071 ± 0.013
